Measured values: article PMC2670776 (Hepatology (Baltimore, Md.), 2009)
Where a SMILES comes first, the peptide text is derived from it. The star is where a group is joined. Cbz = O=C(OCc1ccccc1)*

Key:
SIINFEKL-H2Kb complex [1] = test: Presentation of […]-H2Kb complex on HepB5 cells; type: cell-based, mouse; conditions: for SIINFEKL-H2Kb presentation compared with controls: IFNγ-pretreated HepB5 cells, 1 hr
proteasome [2] = test: Hydrolysis of […]-TE by cytosolic fractions of HepB5 cells; type: biochemical, mouse
HepB5 cells = test: Acetaldehyde level in medium by head space gas chromatography; type: cell-based, mouse; conditions: HepB5 cells incubated with ethanol and DAS, 20 μM; culture medium
proteasome [3] = test: Proteasome chymotrypsin-like; type: cell-based, mouse; conditions: HepB5 cells, 48 hr
proteasome [4] = test: Proteasome activity in primary hepatocytes
STAT1 [5] = conditions: HepB5 cells, ethanol 48 hr then IFNγ 1 hr; nuclear extracts; 3 experiments
PA28 = conditions: HepB5 cells, IFNγ 10 ng/ml and ethanol 50 mM, 48 hr; normalized to β-actin
SIINFEKL-H2Kb complex [6] = test: Presentation of SIINFEKL-H2Kb complex on primary hepatocytes
LMP2 = conditions: HepB5 cells, IFNγ 10 ng/ml and ethanol 50 mM, 48 hr; normalized to β-actin
STAT1 [7] = conditions: HepB5 cells, ethanol treatment then IFNγ; data not shown
ADH = ADH (Mus musculus, UniProt P00329); conditions: HepB5 cells exposed to ethanol for 48 hr; total cell lysates
Chain of ADH (P00329 whole entry): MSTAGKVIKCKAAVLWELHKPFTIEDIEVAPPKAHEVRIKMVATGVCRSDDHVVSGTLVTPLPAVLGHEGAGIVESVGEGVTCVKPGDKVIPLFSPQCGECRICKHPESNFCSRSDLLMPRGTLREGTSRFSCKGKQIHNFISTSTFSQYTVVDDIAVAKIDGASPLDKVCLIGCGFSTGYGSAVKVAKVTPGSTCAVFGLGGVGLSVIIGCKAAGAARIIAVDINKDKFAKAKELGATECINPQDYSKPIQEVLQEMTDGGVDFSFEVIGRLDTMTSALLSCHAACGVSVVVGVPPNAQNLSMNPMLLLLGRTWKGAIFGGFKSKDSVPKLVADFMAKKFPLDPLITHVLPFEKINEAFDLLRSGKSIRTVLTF

H2Kb = H2Kb expression on HepB5 cells; type: cell-based, mouse; conditions: HepB5 cells after 24-hr IFNγ exposure; flow cytometric analysis
[8] = 50 mM ethanol 18 hr, without IFNγ

## catalase
SIINFEKL-H2Kb complex [1]; IFNγ-treated HepB5 cells, co-treatment with ethanol and catalase
  SIINFEKL-H2Kb presentation restored: up to 80%

## COC1=C2C[C@@H](C)C[C@H](OC)[C@H](O)[C@@H](C)/C=C(\C)[C@H](OC(N)=O)[C@@H](OC)/C=C\C=C(/C)C(=O)NC(=CC1=O)C2=O [geldanamycin]
SIINFEKL-H2Kb complex [1]; geldanamycin 5 μM
  SIINFEKL-H2Kb presentation compared with controls: suppressed

## CC(C)C[C@@H](C=O)NC(=O)[C@H](CC(C)C)NC(=O)[C@H](CC(C)C)NC(=O)OCc1ccccc1 [MG132] (Cbz-Leu-Leu-Leu-aldehyde)
Proteasome [2]; cytosols of HepB5 cells with MG132
  SIINFEKL-TE hydrolysis: completely blocked
SIINFEKL-H2Kb complex [1]; MG132 20 μM
  SIINFEKL-H2Kb presentation compared with controls: suppressed

## C=CCSCC=C [DAS, diallyl sulfide]
HepB5 cells
  Ach (acetaldehyde) levels: suppressed

## CCO [ethanol]
Proteasome [2]; cytosols of IFNγ-treated HepB5 cells exposed to 50 mM ethanol
  Peptide hydrolysis in IFNγ-treated cells: suppressed
Proteasome [3]; 50 mM ethanol + IFNγ 10 ng/ml
  Effect on IFNγ induction of proteasome activity: blocked this induction
Proteasome [3]; ethanol 50 mM, 3 experiments
  Cht-L proteasome activity reduced by: 40%
Proteasome [4]; [8]
  Proteasome activity: decreased
Proteasome [4]; IFNγ 10 ng/ml, 50 mM ethanol
  Proteasome function in IFNγ-pretreated hepatocytes: down-regulated
STAT1 [5]
  STAT1 attachment to DNA: suppressed
PA28
  Induction of 20S proteasome activator PA28 expression by IFNγ: prevented the induction
SIINFEKL-H2Kb complex [6]; [8]
  Presentation of SIINFEKL-H2Kb complexes: decreased
SIINFEKL-H2Kb complex [6]; IFNγ 10 ng/ml, 50 mM ethanol
  Antigen presentation in IFNγ-pretreated hepatocytes: down-regulated
LMP2
  Induction of immunoproteasome subunit LMP2 by IFNγ: prevented the induction
STAT1 [7]
  STAT1 phosphorylation: no changes
ADH
  ADH activity: unchanged

## IFNγ: recombinant interferon gamma, used at 10 ng/ml
Proteasome [3]; IFNγ 10 ng/ml
  Effect on proteasome activity: induced proteasome activity
H2Kb
  H2Kb positive cells: about 90%

## Cc1cn[nH]c1 [4MP, 4-methylpyrazole, reference compound]
Proteasome [2]; cytosols of HepB5 cells incubated with 50 mM ethanol and 4MP 2 mM
  Inhibitory effect of ethanol on peptide cleavage after ethanol and 4MP: partially reversed
Proteasome [3]; 50 mM ethanol + 4MP 2 mM
  Cht-L proteasome activity, cells incubated with ethanol and 4MP: unaffected
Proteasome [4]; 50 mM ethanol + 4MP 2 mM
  Ethanol-elicited reduction in proteasome activity: partially prevented
SIINFEKL-H2Kb complex [1]; IFNγ-treated HepB5 cells, 50 mM ethanol with 4 MP in culture medium
  Suppressive effects of ethanol on SIINFEKL-H2Kb presentation: blocked
SIINFEKL-H2Kb complex [6]; 50 mM ethanol + 4MP 2 mM
  Ethanol-elicited reduction in SIINFEKL-H2Kb presentation: partially prevented

## C[C@H]1CCC/C=C/[C@@H]2C[C@H](O)C[C@H]2[C@H](O)/C=C/C(=O)O1 [brefeldin A]
SIINFEKL-H2Kb complex [1]; brefeldin A 5 μg/ml
  SIINFEKL-H2Kb presentation compared with controls: suppressed
